The text below walks through data of ChEMBL document CHEMBL3351668, “Improvement of antibacterial activity of some sulfa drugs through linkage to certain phthalazin-1(2H)-one scaffolds” (2014).

Each structure is given as a SMILES string. Converted amounts (≈) assume the structure as drawn.

Experiment [1] concerns Salmonella typhimurium. Kind of experiment: Antibacterial activity against Salmonella typhimurium RCMB 010072 after 24 hrs by twofold serial dilution technique. Format: functional, Salmonella enterica subsp. enterica serovar Typhimurium. The conditions noted are these: Salmonella enterica, RCMB 010072, 24 h.
Experiment [2] deals with Enterococcus faecalis. Kind of experiment: Antibacterial activity against Enterococcus faecalis RCMB 010068 after 24 hrs by twofold serial dilution technique. Format: functional. The settings on record: RCMB 010068, 24 h.
The test system of experiment [3] is Staphylococcus aureus. As to the kind of experiment: Antibacterial activity against Staphylococcus aureus RCMB 010028 after 24 hrs by twofold serial dilution technique. Format: functional. The conditions noted are these: RCMB 010028, 24 h.
In experiment [4] the test system is Streptococcus pneumoniae. As to the kind of experiment: Antibacterial activity against Streptococcus pneumoniae RCMB 010010 at 100 umol/ml after 24 hrs by well diffusion assay. The experiment is classed as functional.
Experiment [5] has as its system Escherichia coli. As to the kind of experiment: Antibacterial activity against Escherichia coli RCMB 010052 after 24 hrs by twofold serial dilution technique. The settings on record: RCMB 010052, 24 h. Format: functional.
Experiment [6] concerns Streptococcus pneumoniae. As to the kind of experiment: Antibacterial activity against Streptococcus pneumoniae RCMB 010010 after 24 hrs by twofold serial dilution technique. Format: functional. The conditions noted are these: RCMB 010010, 24 h.
The test system of experiment [7] is Salmonella typhimurium. Kind of experiment: Antibacterial activity against Salmonella typhimurium RCMB 010072 at 100 umol/ml after 24 hrs by well diffusion assay. The experiment is classed as functional, Salmonella enterica subsp. enterica serovar Typhimurium. (A growth-free zone around the sample is the usual read-out of agar diffusion tests.)
For experiment [8], the system named is Staphylococcus aureus. Kind of experiment: Antibacterial activity against Staphylococcus aureus RCMB 010028 at 100 umol/ml after 24 hrs by well diffusion assay. Format: functional.
Experiment [9] relates to Enterococcus faecalis. Kind of experiment: Antibacterial activity against Enterococcus faecalis RCMB 010068 at 100 umol/ml after 24 hrs by well diffusion assay. The experiment is classed as functional.
Experiment [10] relates to Escherichia coli. Kind of experiment: Antibacterial activity against Escherichia coli RCMB 010052 at 100 umol/ml after 24 hrs by well diffusion assay. Format: functional.

Broadly, the MIC is the lowest concentration found to suppress growth. As to `Nc1ccc(S(N)(=O)=O)cc1` [SULFANILAMIDE], the MIC against Salmonella typhimurium [1] is 100 mM (≈ 17200 µg/mL); in the experiment with Enterococcus faecalis [2], 100 mM (≈ 17200 µg/mL); against Staphylococcus aureus [3], 12.5 mM (≈ 2150 µg/mL); against Escherichia coli [5], 25 mM (≈ 4310 µg/mL); against Streptococcus pneumoniae [6], 25 mM (≈ 4310 µg/mL). Further, the “diameter of the inhibition zone (DIZ)” value in the experiment on Streptococcus pneumoniae [4] is 15.8 mm; in the experiment on Salmonella typhimurium [7], 14.2 mm; in the experiment on Staphylococcus aureus [8], 16.8 mm; in the experiment on Enterococcus faecalis [9], 14.2 mm; in the experiment on Escherichia coli [10], 15.8 mm.
On to `Nc1ccc(S(=O)(=O)Nc2nccs2)cc1` [SULFATHIAZOLE], for which the MIC against Salmonella typhimurium [1] stood at 12.5 mM (≈ 3190 µg/mL); against Enterococcus faecalis [2] it was 50 mM (≈ 12800 µg/mL); against Staphylococcus aureus [3], 50 mM (≈ 12800 µg/mL); against Escherichia coli [5] it was 100 mM (≈ 25500 µg/mL); against Streptococcus pneumoniae [6], 25 mM (≈ 6380 µg/mL). The “diameter of the inhibition zone (DIZ)” value in the experiment with Streptococcus pneumoniae [4] came to 15.8 mm; in the experiment with Salmonella typhimurium [7], 17.2 mm; with Staphylococcus aureus [8] it was 15 mm; in the experiment on Enterococcus faecalis [9], 14.9 mm; with Escherichia coli [10], 13.8 mm.
For the compound `O=C(Cn1nc(-c2ccccc2)c2ccccc2c1=O)Nc1ccc(S(=O)(=O)Nc2nccs2)cc1`, the MIC is 0.78 mM (≈ 404 µg/mL) against Salmonella typhimurium [1]; 25 mM (≈ 12900 µg/mL) against Enterococcus faecalis [2]; 12.5 mM (≈ 6470 µg/mL) against Staphylococcus aureus [3]; 25 mM (≈ 12900 µg/mL) in the experiment on Escherichia coli [5]; 1.56 mM (≈ 807 µg/mL) with Streptococcus pneumoniae [6]. Besides, the “diameter of the inhibition zone (DIZ)” value in the experiment with Streptococcus pneumoniae [4] is given as 20.3 mm; with Salmonella typhimurium [7], 21 mm; with Staphylococcus aureus [8] it was 18.3 mm; in the experiment with Enterococcus faecalis [9] it was 17 mm; in the experiment on Escherichia coli [10], 16.3 mm.
As to `Nc1ccc(S(=O)(=O)Nc2ncccn2)cc1` [SULFADIAZINE], the MIC in the experiment with Salmonella typhimurium [1] worked out at 50 mM (≈ 12500 µg/mL); in the experiment with Enterococcus faecalis [2], 100 mM (≈ 25000 µg/mL); with Staphylococcus aureus [3] it was 6.25 mM (≈ 1560 µg/mL); in the experiment with Escherichia coli [5], 100 mM (≈ 25000 µg/mL); in the experiment on Streptococcus pneumoniae [6], 100 mM (≈ 25000 µg/mL). Besides, the “diameter of the inhibition zone (DIZ)” value in the experiment on Streptococcus pneumoniae [4] turned out to be 14.2 mm; with Salmonella typhimurium [7], 15 mm; in the experiment with Staphylococcus aureus [8], 18.3 mm; in the experiment on Enterococcus faecalis [9] it was 13.7 mm; in the experiment with Escherichia coli [10] it was 14.2 mm.
For the compound `NS(=O)(=O)c1ccc(NC(=O)Cn2nc(-c3ccccc3)c3ccccc3c2=O)cc1`, the minimum inhibitory concentration (MIC) turned out to be 12.5 mM (≈ 5430 µg/mL) in the experiment on Salmonella typhimurium [1]; 25 mM (≈ 10900 µg/mL) against Enterococcus faecalis [2]; 1.56 mM (≈ 678 µg/mL) with Staphylococcus aureus [3]; 12.5 mM (≈ 5430 µg/mL) against Escherichia coli [5]; 12.5 mM (≈ 5430 µg/mL) in the experiment with Streptococcus pneumoniae [6]. Besides, the “diameter of the inhibition zone (DIZ)” value in the experiment with Streptococcus pneumoniae [4] was 16.8 mm; with Salmonella typhimurium [7], 16.9 mm; in the experiment on Staphylococcus aureus [8], 19.4 mm; in the experiment on Enterococcus faecalis [9] it was 15.9 mm; in the experiment with Escherichia coli [10], 16.8 mm.
Regarding `COc1ccc(Cc2nn(CCC(=O)Nc3ccc(S(=O)(=O)Nc4ncccn4)cc3)c(=O)c3ccccc23)cc1`, the minimal inhibitory concentration (MIC) against Salmonella typhimurium [1] was 25 mM (≈ 14300 µg/mL); with Enterococcus faecalis [2], 25 mM (≈ 14300 µg/mL); with Staphylococcus aureus [3] it was 3.12 mM (≈ 1780 µg/mL); against Escherichia coli [5], 50 mM (≈ 28500 µg/mL); with Streptococcus pneumoniae [6] it was 50 mM (≈ 28500 µg/mL). Also, the “diameter of the inhibition zone (DIZ)” value with Streptococcus pneumoniae [4] is 15.7 mm; with Salmonella typhimurium [7] it was 17.4 mm; with Staphylococcus aureus [8] it was 19.8 mm; in the experiment with Enterococcus faecalis [9], 17.2 mm; in the experiment on Escherichia coli [10] it was 16.2 mm.
Regarding `O=C(Cn1nc(-c2ccccc2)c2ccccc2c1=O)Nc1ccc(S(=O)(=O)Nc2ncccn2)cc1`, the MIC against Salmonella typhimurium [1] was determined as 6.25 mM (≈ 3200 µg/mL); in the experiment on Enterococcus faecalis [2], 1.56 mM (≈ 800 µg/mL); against Staphylococcus aureus [3] it was 0.39 mM (≈ 200 µg/mL); in the experiment on Escherichia coli [5], 25 mM (≈ 12800 µg/mL); in the experiment with Streptococcus pneumoniae [6] it was 0.39 mM (≈ 200 µg/mL). Further, the “diameter of the inhibition zone (DIZ)” value was 22.3 mm with Streptococcus pneumoniae [4]; 18.2 mm with Salmonella typhimurium [7]; 22.3 mm in the experiment on Staphylococcus aureus [8]; 20.3 mm in the experiment on Enterococcus faecalis [9]; 16.1 mm with Escherichia coli [10].
Consider `COc1ccc(Cc2nn(CC(=O)Nc3ccc(S(N)(=O)=O)cc3)c(=O)c3ccccc23)cc1`, for which the MIC came to 1.56 mM (≈ 747 µg/mL) in the experiment on Salmonella typhimurium [1]; 25 mM (≈ 12000 µg/mL) in the experiment with Enterococcus faecalis [2]; 0.39 mM (≈ 187 µg/mL) in the experiment with Staphylococcus aureus [3]; 3.12 mM (≈ 1490 µg/mL) in the experiment on Escherichia coli [5]; 6.25 mM (≈ 2990 µg/mL) against Streptococcus pneumoniae [6]. Also, the “diameter of the inhibition zone (DIZ)” value in the experiment with Streptococcus pneumoniae [4] worked out at 18.2 mm; in the experiment on Salmonella typhimurium [7], 20 mm; with Staphylococcus aureus [8], 22 mm; in the experiment on Enterococcus faecalis [9], 16.2 mm; with Escherichia coli [10] it was 19.6 mm.
On to `COc1ccc(Cc2nn(CCC(=O)Nc3ccc(S(N)(=O)=O)cc3)c(=O)c3ccccc23)cc1`, for which the MIC is 1.56 mM (≈ 768 µg/mL) in the experiment with Salmonella typhimurium [1]; 12.5 mM (≈ 6160 µg/mL) against Enterococcus faecalis [2]; 0.39 mM (≈ 192 µg/mL) against Staphylococcus aureus [3]; 3.12 mM (≈ 1540 µg/mL) in the experiment on Escherichia coli [5]; 6.25 mM (≈ 3080 µg/mL) against Streptococcus pneumoniae [6]. Moreover, the “diameter of the inhibition zone (DIZ)” value in the experiment on Streptococcus pneumoniae [4] is 18.3 mm; in the experiment on Salmonella typhimurium [7], 21 mm; in the experiment on Staphylococcus aureus [8], 22.3 mm; in the experiment on Enterococcus faecalis [9] it was 16.7 mm; with Escherichia coli [10] it was 19.9 mm.
`NS(=O)(=O)c1ccc(NC(=O)Cn2nc(Cc3ccccc3)c3ccccc3c2=O)cc1`: the MIC turned out to be 3.12 mM (≈ 1400 µg/mL) against Salmonella typhimurium [1]; 50 mM (≈ 22400 µg/mL) with Enterococcus faecalis [2]; 0.78 mM (≈ 350 µg/mL) in the experiment with Staphylococcus aureus [3]; 6.25 mM (≈ 2800 µg/mL) against Escherichia coli [5]; 25 mM (≈ 11200 µg/mL) against Streptococcus pneumoniae [6]. Besides, the “diameter of the inhibition zone (DIZ)” value in the experiment on Streptococcus pneumoniae [4] is 16.2 mm; with Salmonella typhimurium [7], 18.24 mm; with Staphylococcus aureus [8], 21 mm; in the experiment with Enterococcus faecalis [9], 15.3 mm; with Escherichia coli [10], 17.6 mm.
Regarding `O=C(Cn1nc(-c2ccc(Cl)cc2)c2ccccc2c1=O)Nc1ccc(S(=O)(=O)Nc2nccs2)cc1`, the MIC stood at 0.78 mM (≈ 431 µg/mL) against Salmonella typhimurium [1]; 25 mM (≈ 13800 µg/mL) in the experiment on Enterococcus faecalis [2]; 3.12 mM (≈ 1720 µg/mL) in the experiment on Staphylococcus aureus [3]; 0.39 mM (≈ 215 µg/mL) against Escherichia coli [5]; 1.56 mM (≈ 861 µg/mL) in the experiment on Streptococcus pneumoniae [6]. For the same compound, the “diameter of the inhibition zone (DIZ)” value worked out at 20.2 mm in the experiment on Streptococcus pneumoniae [4]; 21.4 mm with Salmonella typhimurium [7]; 19.9 mm in the experiment with Staphylococcus aureus [8]; 17.2 mm in the experiment with Enterococcus faecalis [9]; 22.2 mm with Escherichia coli [10].
Regarding `COc1ccc(Cc2nn(CC(=O)Nc3ccc(S(=O)(=O)Nc4ncccn4)cc3)c(=O)c3ccccc23)cc1`, the minimal inhibitory concentration (MIC) with Salmonella typhimurium [1] was determined as 3.12 mM (≈ 1740 µg/mL); with Enterococcus faecalis [2], 50 mM (≈ 27800 µg/mL); in the experiment on Staphylococcus aureus [3], 6.25 mM (≈ 3480 µg/mL); against Escherichia coli [5], 25 mM (≈ 13900 µg/mL); in the experiment on Streptococcus pneumoniae [6], 25 mM (≈ 13900 µg/mL). Besides, the “diameter of the inhibition zone (DIZ)” value is given as 16.3 mm with Streptococcus pneumoniae [4]; 19.3 mm in the experiment on Salmonella typhimurium [7]; 18.6 mm in the experiment with Staphylococcus aureus [8]; 15.2 mm with Enterococcus faecalis [9]; 16.9 mm in the experiment with Escherichia coli [10].
